Source: ChEMBL document CHEMBL5625170, “Design, synthesis, and biological evaluation of novel penindolone derivatives as potential inhibitors of hemagglutinin-mediated membrane fusion” (Eur J Med Chem, 2023)
Calls of active or inactive are those of the source. The rule behind the calls is not given here.

Assays:
[1] = target: Hemagglutinin (Influenza A virus (A/Puerto Rico/8/1934(H1N1)), UniProt P03452); test: Binding affinity to Influenza A virus (A/Puerto Rico/8/34) Hemagglutinin by surface plasmon resonance (SPR) assay
Chain of Hemagglutinin (Influenza A virus (A/Puerto Rico/8/1934(H1N1)), UniProt P03452) (P03452 whole entry, the tested form may be a part): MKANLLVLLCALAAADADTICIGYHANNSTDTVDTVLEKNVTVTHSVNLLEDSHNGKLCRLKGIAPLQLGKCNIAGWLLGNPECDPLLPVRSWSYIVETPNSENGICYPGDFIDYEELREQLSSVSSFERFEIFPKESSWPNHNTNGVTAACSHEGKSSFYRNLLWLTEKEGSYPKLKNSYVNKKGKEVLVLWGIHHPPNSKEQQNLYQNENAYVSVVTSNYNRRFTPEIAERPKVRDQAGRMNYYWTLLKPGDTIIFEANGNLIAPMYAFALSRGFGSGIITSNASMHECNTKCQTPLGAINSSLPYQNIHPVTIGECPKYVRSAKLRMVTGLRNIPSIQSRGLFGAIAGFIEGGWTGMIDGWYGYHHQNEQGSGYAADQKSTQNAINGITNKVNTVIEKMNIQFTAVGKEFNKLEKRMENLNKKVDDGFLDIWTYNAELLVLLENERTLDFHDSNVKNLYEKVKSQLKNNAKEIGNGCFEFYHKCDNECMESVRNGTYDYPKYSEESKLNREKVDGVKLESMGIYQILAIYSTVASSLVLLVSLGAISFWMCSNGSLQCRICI

[2] = target: Hemagglutinin (Influenza A virus (A/Puerto Rico/8/1934(H1N1))) (UniProt P03452); test: Blockade of Influenza A virus (A/Puerto Rico/8/34) Hemagglutinin-mediated membrane fusion in Vero cells expressing PR8 HA assessed as syncytium formation at pH 5 at 5 to 20 uM by quantitative membrane fusion assay; format: cell-based; settings: dose 5-20 µM
Chain of Hemagglutinin (Influenza A virus (A/Puerto Rico/8/1934(H1N1))) (P03452 whole entry, the tested form may be a part): as above

[3] = target: Hemagglutinin (Influenza A virus (A/Puerto Rico/8/1934(H1N1))) (UniProt P03452); test: Blockade of Influenza A virus (A/Puerto Rico/8/34) Hemagglutinin-mediated membrane fusion in Vero cells expressing PR8 HA assessed as syncytium formation at pH 5 and measured at 20 uM measured after 2 hrs by polykaryon assay; format: cell-based
[4] = Cytotoxicity against dog MDCK cells assessed as cell viability measured after 48 hrs by MTT assay; format: toxicity, cell-based, Canis lupus familiaris
[5] = Selectivity index, ratio of CC50 for cytotoxicity against dog MDCK cells to IC50 for anti-viral activity against Influenza A virus (A/Puerto Rico/8/34 infected in MDCK cells; format: toxicity, cell-based; settings: read-out: Selectivity Index
[6] = test system: Influenza A virus; test: Anti-viral activity against Influenza A virus H1N1 (A/WSN/33; WSN) infected in MDCK cells assessed as inhibition of virus cytopathic effect measured after 48 hrs by crystal violet staining based assay; format: functional
[7] = test system: Influenza A virus; test: Anti-viral activity against Influenza virus H3N2 (A/Aichi/2/68; Aichi) infected in MDCK cells assessed as inhibition of virus cytopathic effect measured after 48 hrs by crystal violet staining based assay; format: functional
[8] = Cytotoxicity against african green monkey Vero cells assessed as cell viability measured after 48 hrs by MTT assay; format: toxicity, cell-based; settings: chlorocebus sabaeus
[9] = test system: Influenza A virus; test: In vivo antiviral activity against Influenza A virus (A/Puerto Rico/8/34) infected in BALB/c mouse assessed as increase in mouse survival at 2.5 mg/kg, po once daily treated after 4 hrs of inoculation for 14 days relative to control; format: functional; settings: A/Puerto Rico/8/34, 336 h, time 14 day
[10] = Cytotoxicity against human A549 cells assessed as cell viability measured after 48 hrs by MTT assay; format: toxicity, cell-based
[11] = test system: Influenza A virus; test: Potency index, ratio of penindolone-IC50 to test compound IC50 for anti-viral activity against Influenza A virus (A/Puerto Rico/8/34) infected in MDCK cells; format: functional
[12] = test system: MDCK; test: Reduction in HA2 protein expression in Influenza A virus (A/Puerto Rico/8/34) infected in MDCK cell after 60 mins by Western blot analysis; format: functional, cell-based; settings: dose 2.5-20 µM
[13] = test system: Influenza A virus; test: In vivo antiviral activity against Influenza A virus (A/Puerto Rico/8/34) infected in BALB/c mouse assessed as decrease in pulmonary viral titers at 2.5 to 5 mg/kg, po once daily treated after 4 hrs of inoculation for 4 days relative to control; format: functional, organism-based; settings: dose 2.5-5 mg/kg, time 4.0 day
[14] = target: Hemagglutinin (Influenza A virus (A/Puerto Rico/8/1934(H1N1))) (UniProt P03452); test: Blockade of Influenza A virus (A/Puerto Rico/8/34) Hemagglutinin-mediated membrane fusion in Vero cells expressing PR8 HA assessed as syncytium formation at pH 5 by quantitative membrane fusion assay; format: cell-based; settings: dose 5-40 µM
[15] = test system: MDCK; test: Reduction in NS1 protein expression in Influenza A virus (A/Puerto Rico/8/34) infected in MDCK cell after 60 mins by Western blot analysis; format: functional, cell-based
[16] = test system: Influenza A virus; test: Anti-viral activity against Influenza H1N1 virus (A/Virginia09/ATCC1/2009; Vir09) infected (at MOI = 3) in MDCK cell assessed as reduction in hemagglutinin titer using chicken RBC measured after 60 mins by hemagglutinin assay; format: functional, organism-based; settings: H1N1 A/Virginia09/ATCC1/2009, dose 5-20 µM
[17] = test system: Influenza A virus; test: Anti-viral activity against Influenza virus H3N2 (A/Aichi/2/68; Aichi) infected (at MOI = 3) in MDCK cell assessed as reduction in hemagglutinin titer using chicken RBC measured after 60 mins by hemagglutinin assay; format: functional, organism-based; settings: 1 h
[18] = test system: Influenza A virus; test: Anti-viral activity against Influenza A virus H1N1 (A/Virginia09/ATCC1/2009; Vir09) infected in MDCK cells assessed as inhibition of virus cytopathic effect measured after 48 hrs by crystal violet staining based assay; format: functional
[19] = test system: Influenza A virus; test: (§1) In vivo antiviral activity against Influenza A virus (A/Puerto Rico/8/34) infected in BALB/c mouse assessed as intact columnar epithelia in bronchiole without inflammatory cell infiltration at 5 mg/kg, po once daily treated after 4 hrs of inoculation for 4 days relative to control by HE staining based histopathological analysis; format: functional, organism-based
[20] = test system: MDCK; test: Reduction in NP protein expression in Influenza A virus (A/Puerto Rico/8/34) infected in MDCK cell at 40 uM after 60 mins by Western blot analysis; format: functional, cell-based
[21] = test system: Influenza A virus; test: In vivo antiviral activity against Influenza A virus (A/Puerto Rico/8/34) infected in BALB/c mouse assessed as increase in mouse survival at 2.5 mg/kg, po once daily treated after 4 hrs of inoculation for 5 days; format: functional, organism-based; settings: time 5.0 day
[22] = target: Hemagglutinin (Influenza A virus (A/Puerto Rico/8/1934(H1N1))) (UniProt P03452); test: Inhibition of trypsin-mediated Influenza A virus (A/Puerto Rico/8/34) hemagglutinin protein digestion pretreated at 50 uM for 20 mins at pH 5 followed by treated with trypsin for 30 mins at pH 8.5 by SDS-PAGE/trypsin susceptibility (TS) assay
[23] = target: Hemagglutinin (Influenza A virus (A/Puerto Rico/8/1934(H1N1))) (UniProt P03452); test: Blockade of Influenza A virus (A/Puerto Rico/8/34) Hemagglutinin-mediated membrane fusion in Vero cells expressing PR8 HA assessed as syncytium formation at pH 5 and measured at 15 uM measured after 2 hrs by polykaryon assay; format: cell-based
[24] = test system: Influenza B virus; test: Anti-viral activity against Influenza B virus strain (B/Hong Kong/5/72) infected in MDCK cells assessed as inhibition of virus cytopathic effect measured after 48 hrs by crystal violet staining based assay; format: functional
[25] = Toxicity in BALB/c mouse infected with Influenza A virus (A/Puerto Rico/8/34) assessed as death at 2.5 mg/kg, po after 8 days; format: organism-based; settings: in vivo, 192 h, time 8 day
[26] = Toxicity in BALB/c mouse infected with Influenza A virus (A/Puerto Rico/8/34) assessed as decrease in body weight at 2.5 mg/kg, po upto 8 days; format: organism-based; settings: in vivo, 192 h, time < 8 day
[27] = test system: Influenza A virus; test: Anti-viral activity against Influenza A virus H1N1 (A/Puerto Rico/8/34) infected (at MOI = 3) in MDCK cell assessed as reduction in hemagglutinin titer using chicken RBC measured after 60 mins by hemagglutinin assay; format: functional, organism-based; settings: H1N1 A/Puerto Rico/8/34, MDCK, 1 h
[28] = Toxicity in BALB/c mouse infected with Influenza A virus (A/Puerto Rico/8/34) assessed as decrease in body weight at 10 mg/kg, po upto 8 days; format: organism-based; settings: in vivo, 192 h, time < 8 day
[29] = Toxicity in BALB/c mouse infected with Influenza A virus (A/Puerto Rico/8/34) assessed as death at 10 mg/kg, po after 11 days; format: organism-based; settings: in vivo, 264 h, time 11 day
[30] = test system: Influenza A virus; test: In vivo antiviral activity against Influenza A virus (A/Puerto Rico/8/34) infected in BALB/c mouse assessed as increase in mouse survival at 10 mg/kg, po once daily treated after 4 hrs of inoculation for 14 days relative to control; format: functional; settings: A/Puerto Rico/8/34, 336 h, time 14 day
[31] = test system: Influenza A virus; test: as §1, with “10” for “5”; format: functional, organism-based

Question: With `CCOC(=O)c1c(CSc2ccccc2)n(C)c2cc(Br)c(O)c(CN(C)C)c12` [UMIFENOVIR] as the compound, how does the Kd [1] read?
Answer: 51.4 µM

Question: With `CC(=O)c1cc(C)c(O)c(Cc2[nH]c3ccccc3c2Cc2c(O)c(C)cc(C(C)=O)c2O)c1O` as the compound, how does the Kd [1] read?
Answer: 8.4 µM

Question: And the inhibition [2]?
Answer: Active

Question: And the inhibition [3]?
Answer: Active

Question: And the CC50 at 48 h [4]?
Answer: > 300 µM

Question: And the selectivity ratio [5]?
Answer: > 11.8

Question: With `CC(=O)c1cc(C)c(O)c(Cc2[nH]c3ccc(-c4c5ccccc5cc5ccccc45)cc3c2Cc2c(O)c(C)cc(C(C)=O)c2O)c1O` as the compound, how does the “inhibition (INH)” value [6] read?
Answer: 5.6%

Question: And the “inhibition (INH)” value [7]?
Answer: 8.7%

Question: And the CC50 at 48 h [8]?
Answer: 1350 µM

Question: And the survival at 2.5 mg/kg [9]?
Answer: 70%

Question: And the Kd [1]?
Answer: 6.4 µM

Question: And the CC50 at 48 h [10]?
Answer: 180 µM

Question: And the “Ratio IC50” value [11]?
Answer: 3.8

Question: What about the inhibition [12] of the same compound?
Answer: Dose-Dependent Effect

Question: And the Activity [13]?
Answer: Active

Question: And the inhibition [14]?
Answer: Dose-Dependent Effect

Question: What about the inhibition [15] of the same compound?
Answer: Dose-Dependent Effect

Question: What about the inhibition [16] of the same compound?
Answer: Dose-Dependent Effect

Question: And the IC50 [17]?
Answer: < 10 µM

Question: What about the “inhibition (INH)” value [18] of the same compound?
Answer: 13.5%

Question: What about the Activity [19] of the same compound?
Answer: Active

Question: And the inhibition [20]?
Answer: Active

Question: And the Activity [21]?
Answer: Active

Question: And the inhibition [22]?
Answer: Active

Question: And the inhibition [23]?
Answer: Active

Question: And the “inhibition (INH)” value [24]?
Answer: 3.4%

Question: And the CC50 at 48 h [4]?
Answer: > 300 µM

Question: What about the Activity [25] of the same compound?
Answer: Toxic

Question: What about the Activity [26] of the same compound?
Answer: Non-Toxic

Question: And the IC50 [27]?
Answer: < 5 µM

Question: And the selectivity ratio [5]?
Answer: > 44.8

Question: Which results are given for `CCOC(=O)C1=C[C@@H](OC(CC)CC)[C@H](NC(C)=O)[C@@H](N)C1` [OSELTAMIVIR]?
Answer: Activity [28]: Toxic; Activity [29]: Non-Toxic; survival at 10 mg/kg [30]: 80%; CC50 at 48 h [4]: > 300 µM; Activity [31]: Active; selectivity ratio [5]: > 26.3

Question: What does the source list for `CSc1ccc(-c2ccc3c(Cc4c(O)c(C)cc(C(C)=O)c4O)c(Cc4c(O)c(C)cc(C(C)=O)c4O)[nH]c3c2)cc1`?
Answer: CC50 at 48 h [4]: > 300 µM; selectivity ratio [5]: > 33

Question: Which CC50 at 48 h [4] does the source give for `CC(=O)c1cc(C)c(O)c(Cc2[nH]c3cc(C)ccc3c2Cc2c(O)c(C)cc(C(C)=O)c2O)c1O` here?
Answer: > 300 µM

Question: And the selectivity ratio [5]?
Answer: > 19.9

Question: What does the source list for `COc1ccc(-c2ccc3[nH]c(Cc4c(O)c(C)cc(C(C)=O)c4O)c(Cc4c(O)c(C)cc(C(C)=O)c4O)c3c2)cc1`?
Answer: CC50 at 48 h [4]: > 300 µM; selectivity ratio [5]: > 18.4
